In US20160264593A1 (priority 2013, published 2016):
Where “and” joins values, the source holds several entries; their conditions need not be identical. Equal entries are not always repeated. Entries after “also recorded” stand apart in the source; their conditions may differ. Where two headings read alike, the source gives them in different places.

Columns and labels:
PP2A [1] = test: PP2A activity in mouse livers after IP dosing (PP2A immunoprecipitation phosphatase assay, malachite green); type: in vivo, Balb/c mice
Outline: (§1)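 Female Balb/c mice (6-8 weeks) were dosed IP with compound in 4% sodium bicarbonate; brain and liver were harvested 3 h and 6 h post-dose. PP2A was immunoprecipitated from 240 μg lysate with anti-PP2A, using normal IgG as control. Phosphatase activity on a threonine phosphopeptide was read by malachite green absorbance against a phosphate standard curve.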

lung cancer (A549) cells = test: WST cell viability assay, A549; type: cell-based; conditions: Homo sapiens, A549, read-out: IC50 A549
[2] = test system: breast cancer (2LMP) cells; test: WST cell viability assay, 2LMP
Description: IC50 values were obtained for cytotoxicity against breast cancer (2LMP), glioblastoma (U-87) and lung cancer (A549) cells (See Table 5 and FIGS. 3-5).

[3] = test system: glioblastoma (U-87) cells; test: WST cell viability assay, U-87 MG; type: cell-based; conditions: Homo sapiens, U-87 MG
PP2A [4] = test: PP2A activity in mouse brains after IP dosing (PP2A immunoprecipitation phosphatase assay, malachite green); type: in vivo, Balb/c mice; conditions: for Average Conc. (group of 3 mice) / Average Relative Activity (group, vehicle = 100) / Conc. (phosphate, single reading, per mouse) / Mean Conc. (per mouse) / Mean Conc. less IgG blank (per mouse) / Relative Conc. (per mouse, to vehicle) / Relative PP2A Activity (per mouse, vehicle = 100): brain; for activity of PP2A in brains (statement): high dose IP
Outline: as §1

[5] = IP, dose and time not specified
[6] = low dose IP (mpk: 100 0.75, 113 1.1, 151 0.8, 153 0.85, 157 1.0), 3 h, liver
[7] = low dose IP (mpk: 100 0.75, 113 1.1, 151 0.8, 153 0.85, 157 1.0), 6 h, liver
[8] = high dose IP (mpk: 100 1.5, 113 2.2, 151 1.6, 153 1.7, 157 2.0), 3 h
[9] = high dose IP (mpk: 100 1.5, 113 2.2, 151 1.6, 153 1.7, 157 2.0), 6 h
[10] = low dose IP (mpk: 100 0.75, 113 1.1, 151 0.8, 153 0.85, 157 1.0), 3 h
[11] = low dose IP (mpk: 100 0.75, 113 1.1, 151 0.8, 153 0.85, 157 1.0), 6 h

CCCOC(=O)C1C2CCC(O2)C1C(=O)N1CCN(C)CC1 (stereo not shown) [Compound 153, 3-(4-Methylpiperazine-1-carbonyl)-7-oxa-bicyclo[2,2,1]heptane-2-carboxylic acid propyl ester]
PP2A activity in the liver of mice (statement) (PP2A [1]; [5]): inhibited PP2A activity | activity of PP2A in livers as compared with vehicle (statement) (PP2A [1]; high dose IP, 6 h post treatment): significantly inhibited | Average Conc. (group of 3 mice) (PP2A [1]; [6]): 387.63 | Average Relative Activity (group, vehicle = 100) (PP2A [1]; [6]): 92.3 | Conc. (phosphate, single reading, per mouse) (PP2A [1]; [6]): 445.88 and 461.99 and 441.96 and 438.48 and 396.24 and 414.09 | Mean Conc. (per mouse) (PP2A [1]; [6]): 453.94 and 440.22 and 405.17 | Mean Conc. less IgG blank (per mouse) (PP2A [1]; [6]): 408.46 and 394.74 and 359.69 | Relative Conc. (per mouse, to vehicle) (PP2A [1]; [6]): 0.97 and 0.94 and 0.86 | Relative PP2A Activity (per mouse, vehicle = 100) (PP2A [1]; [6]): 97.26 and 93.99 and 85.65 | Average Conc. (group of 3 mice) (PP2A [1]; [7]): 364.7 | Average Relative Activity (group, vehicle = 100) (PP2A [1]; [7]): 82.05 | IC50 (lung cancer (A549) cells): > 100 µM | cytotoxicity against breast cancer cells (statement) ([2]; WST, 2LMP): cytotoxic | IC50 ([2]; read-out: IC50 2LMP, WST-20131015 (first value of the cell)): 69.1 µM | IC50 ([2]; read-out: IC50 2LMP, WST-20131025 (second value of the cell)): 62 µM | IC50 ([3]; read-out: IC50 U-87 MG, WST-20131017 (first value of the cell)): > 100 µM | IC50 ([3]; read-out: IC50 U-87 MG, WST-20131024 (second value of the cell)): > 100 µM | PP2A activity in the brain of mice (statement) (PP2A [4]; [5]): inhibited PP2A activity | Average Conc. (group of 3 mice) (PP2A [4]; [8]): 1620.00 | Average Relative Activity (group, vehicle = 100) (PP2A [4]; [8]): 65.73 | Conc. (phosphate, single reading, per mouse) (PP2A [4]; [8]): 2278.33 and 2174.47 and 1309.82 and 1252.91 and 1475.88 and 1456.77 | Mean Conc. (per mouse) (PP2A [4]; [8]): 2226.40 and 1281.36 and 1466.33 | Mean Conc. less IgG blank (per mouse) (PP2A [4]; [8]): 2188.37 and 1243.34 and 1428.30 | Relative Conc. (per mouse, to vehicle) (PP2A [4]; [8]): 1.01 and 0.57 and 0.66 | Relative PP2A Activity (per mouse, vehicle = 100) (PP2A [4]; [8]): 88.79 and 50.45 and 57.95 | Average Conc. (group of 3 mice) (PP2A [4]; [9]): 1696.22 | Average Relative Activity (group, vehicle = 100) (PP2A [4]; [9]): 61.07 | Conc. (phosphate, single reading, per mouse) (PP2A [4]; [9]): 1822.84 and 1778.73 and 1685.64 and 1802.51 and 1690.72 and 1625.07 | Mean Conc. (per mouse) (PP2A [4]; [9]): 1800.78 and 1744.07 and 1657.89 | Mean Conc. less IgG blank (per mouse) (PP2A [4]; [9]): 1762.76 and 1706.05 and 1619.87 | Relative Conc. (per mouse, to vehicle) (PP2A [4]; [9]): 0.72 and 0.70 and 0.66 | Relative PP2A Activity (per mouse, vehicle = 100) (PP2A [4]; [9]): 63.47 and 61.43 and 58.32 | activity of PP2A in brains (statement) (PP2A [4]; 3 h): more effectively than compound 100 | activity of PP2A in brains (statement) (PP2A [4]; 6 h): significantly inhibited; also recorded: more effectively than compound 100 | PP2A activity in brains as compared with vehicle (PP2A [4]; high doses IP, 6 h post treatment): 61% | Average Conc. (group of 3 mice) (PP2A [4]; [10]): 2159.78 | Average Relative Activity (group, vehicle = 100) (PP2A [4]; [10]): 87.63 | Conc. (phosphate, single reading, per mouse) (PP2A [4]; [10]): 2670.21 and 2571.02 and 1916.94 and 1817.15 and 2140.93 and 2070.60 | Mean Conc. (per mouse) (PP2A [4]; [10]): 2620.61 and 1867.04 and 2105.77 | Mean Conc. less IgG blank (per mouse) (PP2A [4]; [10]): 2582.58 and 1829.02 and 2067.74 | Relative Conc. (per mouse, to vehicle) (PP2A [4]; [10]): 1.19 and 0.84 and 0.95 | Relative PP2A Activity (per mouse, vehicle = 100) (PP2A [4]; [10]): 104.78 and 74.21 and 83.90 | Average Conc. (group of 3 mice) (PP2A [4]; [11]): 2104.97 | Average Relative Activity (group, vehicle = 100) (PP2A [4]; [11]): 75.79 | Conc. (phosphate, single reading, per mouse) (PP2A [4]; [11]): 1969.99 and 2070.60 and 2070.20 and 2078.94 and 2387.89 and 2280.36 | Mean Conc. (per mouse) (PP2A [4]; [11]): 2020.30 and 2074.57 and 2334.12 | Mean Conc. less IgG blank (per mouse) (PP2A [4]; [11]): 1982.27 and 2036.54 and 2296.10 | Relative Conc. (per mouse, to vehicle) (PP2A [4]; [11]): 0.81 and 0.83 and 0.94 | Relative PP2A Activity (per mouse, vehicle = 100) (PP2A [4]; [11]): 71.37 and 73.33 and 82.67
